Reference: patent publication US10646488B2 (Araxes Pharma LLC, priority 2016, dated 2020)

What follows are compounds tested against T1, KRAS G12C 1-169, his-tagged protein, GDP-loaded (Homo sapiens, UniProt P01116, G12C) (assay: Covalent binding (% modification) to KRAS G12C by mass spectrometry). Details: covalent binding to KRAS G12C after a ten minute incubation period.
T1 construct: KRAS G12C 1-169, his-tagged protein, GDP-loaded
Procedure: Test compounds were prepared as 10 mM stock solutions in DMSO (Fisher cat # BP-231-100). KRAS G12C 1-169, his-tagged protein, GDP-loaded was diluted to 2 μm in buffer (20 mM Hepes, 150 mM NaCl, 1 mM MgCl2). Compounds were tested for activity as follows:
Compounds were diluted to 50× final test concentration in DMSO in 96-well storage plates. Compound stock solutions were vortexed before use and observed carefully for any sign of precipitation. Dilutions were as follow: • For 100 μM final compound concentration, compounds were diluted to 5000 μM (5 μl 10 mM compound stock+5 μl DMSO and mixed well by pipetting. • For 30 μM final compound concentration, compounds were diluted to 1500 μM (3 μl 10 mM compound stock+17 μl DMSO) and mixed well by pipetting. • For 10 μM final compound concentration, compounds were diluted to 500 μM (2 μl 10 mM compound stock+38 μl DMSO) and mixed well by pipetting. 49 μl of the stock protein solution was added to each well of a 96-well PCR plate (Fisher cat #1423027). 1 μl of the diluted 50× compounds were added to appropriate wells in the PCR plate using 12-channel pipettor. Reactions were mixed carefully and thoroughly by pipetting up/down with a 200·1 multi-channel pipettor. […] 5 μl of 2% formic acid (Fisher cat # A117) in DI H2O was then added to each well followed by mixing with a pipette. The plate was then resealed with aluminum seal and stored on dry ice until analyzed as described below.
The above described assays were analyzed by mass spectrometry according to one of the following two procedures:
The MS instrument is set to positive polarity, 2 GHz resolution, and low mass (1700) mode and allowed to equilibrate for 30 minutes. The instrument is then calibrated, switched to acquisition mode and the appropriate method loaded.
After another 30 minute equilibration time, a blank batch (i.e., buffer) is run to ensure equipment is operating properly. The samples are thawed at 37° C. for 10 minutes, briefly centrifuged, and transfer to the bench top. Wells A1 and H12 are spiked with 1 uL 500 uM internal standard peptide, and the plates centrifuged at 2000×g for 5 minutes. The method is then run and masses of each individual well recorded.
The masses (for which integration data is desired) for each well are pasted into the platemap and exported from the analysis. Masses for the internal standards are exported as well. The data at 50 ppm is extracted for the +19 charge state, and identity of well A1 is assigned using the internal standard spike and integrated. Peak data is exported as a TOF list and the above steps are repeated individually, for the +20, 21, 22, 23, 24, and 25 charge states.
The masses and peak intensities of KRAS G12C protein species were measured using a Dionex RSLCnano system (Thermo Scientific) connected to a Q Exactive Plus mass spectrometer (Thermo Scientific).
[…] of sample was each loaded onto a Aeris™ 3.6 μm WIDEPORE C4 200 Å, LC Column 50×2.1 mm column maintained at 40° C. at a flow rate of 600 μl min^−1 with […] (0.1% formic acid in acetonitrile). The liquid chromatography conditions were 20% solvent B for 1 min, 20% to 60% solvent B for 1.5 min, 60% to 90% solvent for 0.5 min, 90% solvent B for 0.2 min, 90% to 20% solvent B for 0.2 min, and then equilibrated for 1.6 min before the following sample injection. The flow rate was maintained at 600 μl min^−1 throughout the sample analysis.
The mass spectrometer was operated in profile mode at a resolution of 17500, 5 microscans, using 50 msec max injection time and an AGC target of 1e6, and a full mass range from 800-1850 m/z was recorded. The HCD trapping gas was optimized for maximum sensitivity for intact proteins. The ionization method was electrospray ionization, which used a spray voltage of 4 kV, sheath gas flow set to 50 au, auxiliary gas flow set to 10 au and sweep gas flow set to 1 au. […]
In the case of `C=CC(=O)N1CCN(c2nc(OCCN3CC(F)(F)C3)nc3c(F)c(-c4c(O)cccc4F)c(Cl)cc23)C[C@H]1C` [Compound 57, 1-((2R)-4-(6-chloro-2-(2-(3,3-difluoroazetidin-1-yl)ethoxy)-8-fluoro-7-(2-fluoro-6-hydroxyphenyl)quinazolin-4-yl)-2-methyl-piperazin-1-yl) prop-2-en-1-one], the Binding % is reported as “+++ (+++ indicates binding activity greater than 90%)”. With `C=CC(=O)N1CCN(c2nc(OCCN3CC(F)(F)C3)nc3c(F)c(-c4c(O)cccc4F)c(Cl)cc23)[C@@H](C)C1` [Compound 11, 1-((3S)-4-(6-chloro-2-(2-(3,3-difluoroazetidin-1-yl)ethoxy)-8-fluoro-7-(2-fluoro-6-hydroxyphenyl)quinazolin-4-yl)-3-methylpiperazin-1-yl)prop-2-en-1-one] the Binding % was “+++ (+++ indicates binding activity greater than 90%)”. `C=CC(=O)N1C[C@@H](C)N(c2nc(OCCN3CC(F)(F)C3)nc3c(F)c(-c4c(C)ccc5cn[nH]c45)c(Cl)cc23)[C@@H](C)C1` [Compound 47, 1-((3S,5R)-4-(6-chloro-2-(2-(3,3-difluoroazetidin-1-yl)ethoxy)-8-fluoro-7-(6-methyl-1H-indazol-7-yl)quinazolin-4-yl)-3,5-dimethyl-piperazin-1-yl) prop-2-en-1-one] was tested, and the Binding % was “++ (++ indicates binding activity from 50 to 90%)”. In the case of `C=CC(=O)N1CCN(c2nc(N3CC(N(C)C)C3)nc3c(F)c(-c4c(O)cccc4F)c(Cl)cc23)[C@@H](C)C1` [Compound 8, 1-((3 S)-4-(6-Chloro-2-(3-(Dimethylamino)Azetidin-1-Yl)-8-Fluoro-7-(2-Fluoro-6-Hydroxyphenyl)Quinazolin-4-Yl)-3-Methylpiperazin-1-Yl)Prop-2-En-1-One], the Binding % is reported as “+++ (+++ indicates binding activity greater than 90%)”.

Same assay, conditions: covalent binding to KRAS G12C after a three minute incubation period
With `C=CC(=O)N1C[C@H](C)N(c2nc(N3CC(NC)C3)nc3c(F)c(-c4c(C)ccc5cn[nH]c45)c(Cl)cc23)C[C@H]1C` (atropisomer, axis not shown) [Compound 108, 1-((2R,5S)-4-(6-chloro-8-fluoro-7-((R)-6-methyl-1H-indazol-7-yl)-2-(3-(methylamino)azetidin-1-yl)quinazolin-4-yl)-2,5-dimethyl-piperazin-1-yl) prop-2-en-1-one] the Binding % was “+++ (+++ indicates binding activity greater than 90%)”. In the case of `C=CC(=O)N1C[C@H](C)N(c2nc(N3CC(N(CC)CC)C3)nc3c(F)c(-c4c(C)ccc5[nH]ncc45)c(Cl)cc23)C[C@H]1C` (atropisomer, axis not shown) [Compound 151, 1-((2R,5S)-4-(6-chloro-2-(3-(diethylamino)azetidin-1-yl)-8-fluoro-7-((R)-5-methyl-1H-indazol-4-yl)quinazolin-4-yl)-2,5-dimethyl-piperazin-1-yl) prop-2-en-1-one], the Binding % is reported as “+++ (+++ indicates binding activity greater than 90%)”. For `C=CC(=O)N1CCN(c2nc(N3CC(N(CC)CC)C3)nc3c(F)c(-c4c(C)ccc5[nH]ncc45)c(Cl)cc23)C[C@H]1C` [Compound 166, 1-((2R)-4-(6-chloro-2-(3-(diethylamino)azetidin-1-yl)-8-fluoro-7-(5-methyl-1H-indazol-4-yl)quinazolin-4-yl)-2-methyl-piperazin-1-yl) prop-2-en-1-one], the Binding % was “++ (++ indicates binding activity from 50 to 90%)”. For `C=CC(=O)N1C[C@H](C)N(c2nc(N3CC(N(C)C)C3)nc3c(F)c(-c4c(O)cccc4F)c(C(F)(F)F)cc23)C[C@H]1C` [Compound 206, 1-((2R,5S)-4-(2-(3-(dimethylamino)azetidin-1-yl)-8-fluoro-7-(2-fluoro-6-hydroxyphenyl)-6-(trifluoromethyl)quinazolin-4-yl)-2,5-dimethyl-piperazin-1-yl) prop-2-en-1-one], the Binding % was “+++ (+++ indicates binding activity greater than 90%)”.
